Earlier results, collected in US20080175925A1, “Method and composition for the treatment of herpes virus” (priority 2007, published 2008).

Tests used:
[1] = test system: HSV-1; conditions: in vitro
[2] = test system: HSV-1; conditions: guinea pig model
[3] = test system: Herpesvirus hominis oral stain SUE (herpesvirus h simplex-1); conditions: solution of 0.02% w/v
[4] = test system: Herpesvirus hominis genital strain MVC 70 (herpesvirus h simplex 0-2); conditions: solution of 0.02% w/v

With NC(CCC(=O)NC(CS)C(=O)NCC(=O)O)C(=O)O (stereo not drawn) [GSH, 2-amino-5-{[2-[(carboxymethyl)amino]-1-(mercaptomethyl)-2-oxoethyl]amino}-5-oxopentanoic acid] as the molecule, how does the “inhibition of replication of HSV-1” value ([1]; addition of exogenous GSH) read?
Its value is greater than 99%.

What about the “intracellular GSH levels after virus challenge” value ([1]; addition of exogenous GSH to infected cells) of the same molecule?
The value was “restore its intracellular levels almost up to those found in uninfected cells”.

With Nc1nc2c(ncn2COCCO)c(=O)[nH]1 [Acyclovir] as the molecule, how does the viral titers [2] read?
Its viral titers is “reduced viral titers”.

What about the “lesion development, duration and severity scores” value ([2]; compared to vehicle control or acyclovir) of the same molecule?
The value was “did not reduce lesion development, duration or severity”.

What does the source list for [H]/N=C(\N/C(=N/[H])NCCCCCCNC(=N)NC(=N)Nc1ccc(Cl)cc1)Nc1ccc(Cl)cc1 [chlorhexidine]?
infectivity of HVH strain SUE (HSV-1) [3]: reduced the infectivity; infectivity of HVH strain MVC 70 (HSV-2) [4]: reduced the infectivity
